According to US4800191A, “LHRH antagonists” (priority 1987, dated 1989):
“And” between values parts separate entries of the source, which are not always exact repeats. Identical values can stand only once. *1 amine or outer side, *2 acyl side, *3 side chain or, on linkers, in order; H or OH if unused. Where a SMILES comes first, the peptide text is derived from it. Side-chain parts run from the residue outwards. [ ]: non-standard residue; d: D form. dPhe(4-Cl) = N[C@H](Cc1ccc(Cl)cc1)C(=O)O; d2Nal = N[C@H](Cc1ccc2ccccc2c1)C(=O)O; d(hCit) = NC(=O)NCCCC[C@@H](N)C(=O)O; dCit = NC(=O)NCCC[C@@H](N)C(=O)O; dOrn = NCCC[C@@H](N)C(=O)O; CO = O=C([*:1])[*:2]

Test system: rats
Test: edematogenic test of Schmidt, et al.
Assay type: in vivo, rat
Conditions: 1.5 mg/kg s.c. once a day on two consecutive days; for 1st Day FR (full responders: facial edema with edematous extremities), rats / 1st Day PR (partial responders: edema of the nasal and paranasal area), rats / 1st Day NR (no apparent reaction), rats: day 1; for 1st Day NR (no apparent reaction), rats: observed five hours each day; for 2nd Day FR (full responders: facial edema with edematous extremities), rats / 2nd Day NR (no apparent reaction), rats / 2nd Day PR (partial responders: edema of the nasal and paranasal area), rats: day 2
Protocol: In the edematogenic test of Schmidt, et al. (Contraception, 29, 283-289, 1984), however, a marked difference can be found between the control peptides and the peptides of the present invention. The control peptides produce edema of the face and extremities when administered subcutaneously in rats at doses of 0.75 or 1.25 mg/kg. No such reaction can be observed with the peptides of the present invention when given at a subcutaneous dose of 1.5 mg/kg.
In the tests as run the rats were assigned to three groups of five rats per group per compound tested. Comparison with made with a known prior art compound designated ORG 30276 namely (N-Ac-D-p-Cl-Phe^1,2, D-Trp^3, D-Arg^6, D-Ala^10)-LHRH. The groups were injected subcuntaneously once a day on two consecutive days with the LHRH antagonists at a dose level of 1.5 mg/kg. One control group was injected with diluent only. The rats were observed during five hours each day. Reactions of the rats were classified as follows: NR no apparent reaction, PR partial responders: edema of the nasal and paranasal area, FR full responders: facial edema with edematous extremities.

Row | Molecule | 1st Day FR (full responders: facial edema with edematous extremities), rats | 1st Day PR (partial responders: edema of the nasal and paranasal area), rats | 1st Day NR (no apparent reaction), rats | 2nd Day FR (full responders: facial edema with edematous extremities), rats | 2nd Day NR (no apparent reaction), rats | 2nd Day PR (partial responders: edema of the nasal and paranasal area), rats
1 | CC(=O)N[C@H](Cc1ccc2ccccc2c1)C(=O)N[C@H](Cc1ccc(Cl)cc1)C(=O)N[C@H](Cc1c[nH]c2ccccc12)C(=O)N[C@@H](CO)C(=O)N[C@@H](Cc1ccc(O)cc1)C(=O)N[C@H](CCCNC(N)=O)C(=O)N[C@@H](CC(C)C)C(=O)N[C@@H](CCCNC(=N)N)C(=O)N1CCC[C@H]1C(=O)N[C@H](C)C(N)=O [EX III, Ac-D-Nal(2)-D-Phe(4-Cl)-D-Trp-Ser-Tyr-D-Cit-Leu-Arg-Pro-D-Ala-NH^2] (Ac-[d2Nal][dPhe(4-Cl)][dW]SY[dCit]LRP[dA]-NH2) | 0 | 0 | 8 | – | – | –
2 | CCNC(=O)NCCC[C@@H](NC(=O)[C@H](Cc1ccc(O)cc1)NC(=O)[C@H](CO)NC(=O)[C@@H](Cc1c[nH]c2ccccc12)NC(=O)[C@@H](Cc1ccc(Cl)cc1)NC(=O)[C@@H](Cc1ccc2ccccc2c1)NC(C)=O)C(=O)N[C@@H](CC(C)C)C(=O)N[C@@H](CCCNC(=N)N)C(=O)N1CCC[C@H]1C(=O)N[C@H](C)C(N)=O [EX IV, Ac-D-Nal(2)-D-Phe(4-Cl)-D-Trp-Ser-Tyr-D-Cit(Et)-Leu-Arg-Pro-D-Ala-NH2] (Ac-[d2Nal][dPhe(4-Cl)][dW]SY[dOrn]([CO-NHEt])LRP[dA]-NH2) | 0 | 0 | 9 | 0 | 9 | 0
3 | CC(=O)N[C@H](Cc1ccc(Cl)cc1)C(=O)N[C@H](Cc1ccc(Cl)cc1)C(=O)N[C@H](Cc1c[nH]c2ccccc12)C(=O)N[C@@H](CO)C(=O)N[C@@H](Cc1ccc(O)cc1)C(=O)N[C@H](CCCNC(=N)N)C(=O)N[C@@H](CC(C)C)C(=O)N[C@@H](CCCNC(=N)N)C(=O)N1CCC[C@H]1C(=O)N[C@H](C)C(N)=O [ORG 30276, (N-Ac-D-p-Cl-Phe^1,2, D-Trp^3, D-Arg^6, D-Ala^10)-LHRH, reference compound] (Ac-[dPhe(4-Cl)][dPhe(4-Cl)][dW]SY[dR]LRP[dA]-NH2) | 0 | 5 and 3 | – | 6 and 3 | – | 2 and 1

Results, then the molecule that gave them:

Row | 1st Day FR (full responders: facial edema with edematous extremities), rats | 1st Day PR (partial responders: edema of the nasal and paranasal area), rats | 1st Day NR (no apparent reaction), rats | 2nd Day FR (full responders: facial edema with edematous extremities), rats | 2nd Day NR (no apparent reaction), rats | 2nd Day PR (partial responders: edema of the nasal and paranasal area), rats | Molecule
4 | 0 | 0 | 9 | 0 | 8 | 1 | CC(=O)N[C@H](Cc1ccc(Cl)cc1)C(=O)N[C@H](Cc1ccc(Cl)cc1)C(=O)N[C@H](Cc1c[nH]c2ccccc12)C(=O)N[C@@H](CO)C(=O)N[C@@H](Cc1ccc(O)cc1)C(=O)N[C@H](CCCCNC(N)=O)C(=O)N[C@@H](CC(C)C)C(=O)N[C@@H](CCCNC(=N)N)C(=O)N1CCC[C@H]1C(=O)N[C@H](C)C(N)=O [EX V, Ac-D-Phe(4-Cl)-D-Phe(4-Cl)-D-Trp-Ser-Tyr-D-Hci-Leu-Arg-Pro-D-Ala-NH2] (Ac-[dPhe(4-Cl)][dPhe(4-Cl)][dW]SY[d(hCit)]LRP[dA]-NH2)
5 | 0 | 0 | 8 | 0 | 8 | 0 | Ac-[d2Nal][dPhe(4-Cl)][dW]SY[d(hCit)]RP[dA]-NH2 [EX I]
